According to patent US20240300923A1, “IRAK4 Inhibitors” (ASTRAZENECA AB, priority 2022, published 2024):

Legend:
[1] = Human plasma protein binding, equilibrium dialysis (RED device); format: in vitro ADME; details: for fraction unbound at 18 h, 5 μM: human, plasma, pH 7.4
From the text: Plasma protein binding may have important implications on the pharmacokinetic behaviour of drugs. This is especially true for highly bound drugs, where the fraction unbound (fu) drug in plasma is an important parameter in the interpretation of in-vivo experiments. Traditionally, there are several different techniques used to determine the extent of drug binding to plasma proteins and equilibrium dialysis is probably the most common.
This method describes our current automated equilibrium dialysis assay in human plasma using the RED (Rapid Equilibrium Dialysis) Device and Hamilton sample handling system, described in WernevikJ et al. (2020) “A Fully Integrated Assay Panel for Early Drug Metabolism and Pharmacokinetics Profiling” Assay. Drug. Dev. Technol 18:157-179; DOI 10.1089/adt.2020.970.
The assay generally runs over three days including delivery of results. The pooled compounds are diluted in plasma to 5 μM and added to the inner chamber of the RED device and a phosphate buffer (pH 7.4) to the surrounding chamber to allow equilibrium dialysis over a semipermeable membrane with a molecular weight cut off at 8 kDa. The 5 μM solutions are also used to establish compound stability in plasma and recovery (mass balance) in the RED devices, with sampling performed at both the 0 and 18 h timepoints. Low recovery indicates binding to the dialysis equipment or solubility issues.
After dialysis for 18 hours, plasma and buffer samples are prepared for analysis by liquid chromatography and mass spectrometry (LC/MSMS). A seven-point calibration curve in plasma, ranging from 1.4 nM to 7 μM, is used to quantify the samples. All samples including the calibration curve, also contain an internal standard (IS) to allow for normalization between variations in injection volume in the UPLC-MS/MS instrumentation.
Three quality controls (QCs) are used in each run. Warfarin with low fu (fu mean ˜1%) is used as a control in each pool. Propranolol (˜30%) and Metoprolol (˜90%) are placed randomly in each run. The controls are monitored in the “Manhattan tool” (Winiwarter et al. (2015) “Time dependent analysis of assay comparability: a novel approach to understand intra-and inter-site variability over time” J. Comput. Aided Mol. Des. 29:795-807; DOI10.1007/s10822-015-9836-5), that defines the acceptance criteria for the QCs as 2.58×standard deviation.

IRAK4 [2] = target: T1, IRAK4 (Homo sapiens (Human), UniProt Q9NWZ3); experiment: IRAK4 enzyme assay (mass spectrometry readout); format: biochemical; details: human recombinant IRAK4 0.2 nM, 3 mM ATP; geometric mean of at least 2 experiments
Description: Potency of IRAK4 Inhibitor Compounds in IRAK4 Enzyme Assay
The inhibitory activity of compounds against IRAK4 were determined in an enzymatic assay using mass spectrometry readout. Ten point half-log compound concentration response curves, with a top concentration of 1 μM or 10 μM, were generated from 10 mM stocks of compound solubilized in DMSO using an Echo 655 (Labcyte Inc) and added to 384 well assay plates (Greiner #781280). To the assay plates, 10 μL of human recombinant IRAK4 protein (Life Technologies #PV4002) diluted to a final concentration of 0.2 nM in assay buffer (50 mM Tris-HCl pH 7.4, 10 mM MgCl, 5 mM glutathione, 0.01% BSA, 3 mM ATP) was added. The enzyme was incubated with the compounds at room temperature for 15 minutes before a peptide substrate ([…], Innovagen custom synthesis, 10 mM in DMSO) was added to each well to a final concentration of 10 μM using an Echo 655 (Labcyte Inc). After two hours at room temperature, the reaction was stopped with 65 μL of 0.4% formic acid (Merck #33015). The unphosphorylated and phosphorylated peptide were measured by LC-MS/MS on a Waters TQ-S mass spectrometer. Peaks were integrated using the TargetLynx software and the ratios between phosphorylated and unphosphorylated peptides were calculated. Curves were fitted and compound potencies determined in Genedata Screener 19 (Genedata AG). IC50 values are the geometric mean of at least 2 experiments.

IRAK4 [3] = target: T1, IRAK4; experiment: IRAK4 phosphorylation cell assay (IL-1β-stimulated Karpas-299 cells); format: cell-based; details: IRAK4 auto-phosphorylation (pIRAK4 Thr345/Ser346) in IL-1β-stimulated Karpas-299 cells; geometric mean of at least 2 experiments
Description: IRAK4 Phosphorylation Cell Assay
The activation of IRAK4 by TLR or IL-1R ligands leads to IRAK4 auto-phosphorylation, which can be prevented by IRAK4 kinase inhibitors. The effect of IRAK4 inhibitor compounds on IRAK4 auto-phosphorylation was assessed in IL-1β-stimulated Karpas-299 cells as a measurement of cellular potency. Karpas-299 cells were cultured in RPMI 1640 (Gibco 61870-010) containing 10% FBS (Gibco #10270). Cells were plated at 2×10^4 cells per well in poly-D-lysine coated 384 well plates (Corning #356663) to which compounds had been added at various concentrations (10 point half log dose response with a final top concentration of 30 μM) using an Echo 655 (Labcyte Inc). Cells were centrifuged (250 g, 4 mins), incubated at 37° C. for 1 h, then stimulated with 22.7 ng/mL recombinant IL-1β (R&D Systems, #201-LB-025) at 37° C. for 10 mins, followed by fixation in 4% paraformaldehyde for 20 mins and permeabilization in ice-cold 70% MeOH in PBS for 30 mins. Cells were washed twice with phosphate-buffered saline (PBS) on a BlueWasher (BlueCatBio) then blocked with PBS containing 10% FBS for 20 mins. Blocking solution was removed with a BlueWasher and cells were stained with anti-pIRAK4 (Thr345/Ser346) (CST, #11927, 1:400) in blocking buffer with 0.05% Tween-20 for 1 h, then washed twice with PBS containing 0.05% Tween-20 on a BlueWasher, followed by staining with a Alexa 647-conjugated secondary anti-rabbit IgG antibody (CST, #4414, 1:2,000) and Hoechst 33342 (Sigma, 1:2,000) in blocking buffer with 0.05% Tween-20 for 30 mins. Finally, the cells were washed twice with PBS containing 0.05% Tween-20 and imaged on an ImageXpress Micro (Molecular Devices) with a 10× air objective using the appropriate filters. Images were analysed in Columbus (PerkinElmer) and the fluorescence intensity per cell from the secondary antibody was quantified. The quantified data were analysed in Genedata Screener 19 (Genedata AG). […] IC50 values are the geometric mean of at least 2 experiments.

T1 sequence (Q9NWZ3 whole entry): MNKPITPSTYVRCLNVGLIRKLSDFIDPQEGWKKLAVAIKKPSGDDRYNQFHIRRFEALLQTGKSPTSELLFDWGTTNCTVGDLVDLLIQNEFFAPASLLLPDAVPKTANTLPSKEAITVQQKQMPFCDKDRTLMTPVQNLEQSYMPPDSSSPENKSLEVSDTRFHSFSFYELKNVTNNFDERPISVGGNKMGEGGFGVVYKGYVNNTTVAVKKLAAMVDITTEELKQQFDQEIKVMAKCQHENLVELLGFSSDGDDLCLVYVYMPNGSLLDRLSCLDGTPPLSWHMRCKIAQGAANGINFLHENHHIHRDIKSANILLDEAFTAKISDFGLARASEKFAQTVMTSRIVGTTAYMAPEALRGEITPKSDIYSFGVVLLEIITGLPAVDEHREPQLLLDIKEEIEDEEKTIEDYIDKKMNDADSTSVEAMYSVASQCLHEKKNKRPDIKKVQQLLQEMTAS

fraction unbound at 18 h, 5 μM [1] | SMILES | Hu PPB (% free) ([1]; human plasma, 5 μM, dialysis 18 hours, single experiment or average of two or more) | IC50 (IRAK4 [2]) | IC50 (IRAK4 [3])
~0.01 | CC(=O)CC(c1ccccc1)c1c(O)c2ccccc2oc1=O (stereo not drawn) [Warfarin] |  |  | 
~0.3 | CC(C)NCC(O)COc1cccc2ccccc12 (stereo not drawn) [Propranolol] |  |  | 
 | COc1cc2nn([C@H]3CC[C@@]4(CC3)COC(=O)N4C)cc2cc1C(=O)Nc1cccn(C)c1=O [Example 20, 6-Methoxy-N-(1-methyl-2-oxo-1,2-dihydropyridin-3-yl)-2-((5s,8s)-1-methyl-2-oxo-3-oxa-1-azaspiro[4.5]decan-8-yl)-2H-indazole-5-carboxamide] | 14 % free | 5.6 nM | 128 nM
~0.9 | COCCc1ccc(OCC(O)CNC(C)C)cc1 (stereo not drawn) [Metoprolol] |  |  | 
